Test results taken from patent US7825092B2, “Dendroaspis natriuretic peptide for treatment of cancer” (University of South Florida, priority 2006, dated 2010).

Assays:
[1] = tested on: human glioblastoma cells; experiment: DNA synthesis by bromodeoxyuridine (BrdU) incorporation; format: cell-based; settings: 1 μM, 24 hours
Procedure: To investigate whether these peptide hormones were inhibiting DNA synthesis, bromodeoxyuridine (BrdU) incorporation into the human glioblastoma cells was utilized as previously described from our laboratory. BrdU was from BD Bioscience, San Jose, Calif. After 24 hours in culture with 1 μM of LANP, vessel dilator, kaliuretic peptide, ANP, and DNP, respectively, or with no peptide hormone (i.e., control), BrdU in a final concentration of 10 μM in the cell culture medium was added for 45 minutes, which is the time in which the cells are in the logarithmic phase of cell proliferation.
(§1) The data obtained in this investigation are illustrated as mean±SEM. Maximum changes in cell death (evaluated six times with ten areas of microscope slide evaluated each time) and DNA synthesis within groups were determined by a paired one-tailed Student's t test evaluated with statistical module of Excel software. To be considered statistically significant, we required a probability value to be <0.05 (95% confidence limits).

[2] = tested on: human glioblastoma cells (ATCC number CRL-11543); experiment: number of human glioblastoma cells counted after incubation with peptide hormones; format: cell-based; settings: for decrease in number of human glioblastoma cells compared to control: at 96 hours (three days after 24 hours exposure); for number of glioblastoma cancer cells remaining (per field): 24 hours, mean±SEM, control 130±3 cells
Procedure: A cell line (ATCC number CRL-11543) of human glioblastoma cells were purchased from American Type Culture Collection (ATCC, Manassas, Va.). This glioblastoma cell line was deposited by the Ludwig Institute for Cancer Research, University of California at San Diego, La Jolla, Calif. This glioblastoma cell line produces angiogensis inhibiting factor.
Propagation of these human glioblastoma cells was in Dulbecco's modified Eagle's medium with 4 mM L-glutamine adjusted to contain 1.5 g/L sodium bicarconate and 4.5 g/L glucose supplemented with 1 μg/ml tetracycline, […], and 10% fetal bovine serum (Atlanta Biologicals, Lawrenceville, Ga.) at a temperature of 37° C. in a […] environment as recommended by the ATCC. Cells were dispensed in new flasks with subculturing two to three times per week.
After the glioblastoma cells were subcultured for 24 hours they were then seeded to coverslips in 24-well plates (Nunclon™, Roskilde, Denmark) with 1 mL of the above media. There were 65,000 cells seeded to each coverslip. After 24 hours, the well plates were washed twice with phosphate-buffered saline to remove the fetal bovine serum. Removal of serum was carried out to completely remove all variables (EGF, etc.) present in serum in order that interpretation of any data obtained would be straightforward. After 24 hours of serum deprivation, media volume was reduced to 250 μL per well with, or without, the respective peptide hormones in dose-response curves with concentrations up to and including 100 μM (1% of this volume). Human glioblastoma cells were then incubated for various periods of time (24, 48, 72, and 96 hours). The number of glioblastoma carcinoma cells were then counted with a cell counter (Thomas Scientific, Swedesboro, N.J.) evaluating ten fields of the microscope slide at ×40 along the X-axis with an Olympus BH-2 microscope (Atlanta, Ga.). This evaluation was repeated on six separate occasions with the number of human glioblastoma cells reflecting 60 observations for each group, i.e., 60 observations for controls and 60 observations for each of the five groups with respective peptide hormones. The peptide hormones used in this investigation were from Phoenix Pharmaceuticals, Inc., Belmont, Calif. In the Results section, the number of cancer cells reported is the number of cells in each individual field. Ten fields were examined on each microscope slide. The results of the ten fields were pooled and the average of the ten fields is illustrated in the Results section.
as §1

[3] = human or animal subjects; cited from earlier work
[4] = tested on: human pancreatic adenocarcinoma cells; settings: 1 μM; cited from earlier work
[5] = tested on: small-cell lung cancer cells; settings: 1 μM; cited from earlier work
[6] = tested on: human prostate cancer cells; settings: cited from earlier work
[7] = tested on: human colon cancer cells; settings: within 24 hours; cited from earlier work
[8] = tested on: human pancreatic adenocarcinomas; settings: in one week, athymic mice; cited from earlier work
[9] = 1 μM, at 48 hours (24 hours exposure only)
[10] = 1 μM, at 72 hours (24 hours exposure only)
[11] = 10 μM, at 48 hours (24 hours exposure only)
[12] = 10 μM, at 72 hours (24 hours exposure only)
[13] = 100 μM, at 48 hours (24 hours exposure only)
[14] = 100 μM, at 72 hours (24 hours exposure only)

| Molecule | decrease in DNA synthesis [1] [%] | decrease in number of human glioblastoma cells compared to control ([2]; 1 μM) [%] | decrease in number of human glioblastoma cells compared to control ([2]; 10 μM) [%] | decrease in number of human glioblastoma cells compared to control ([2]; 100 μM) [%] | side effect hypotension [3] | decrease in number of human glioblastoma cells [2, 9] [%] | decrease in number of human glioblastoma cells [2, 10] [%] | decrease in number of human glioblastoma cells [2, 11] [%] | decrease in number of human glioblastoma cells [2, 12] [%] | decrease in number of human glioblastoma cells ([2]; 100 μM, at 24 hours) [%] | decrease in number of human glioblastoma cells [2, 13] [%] | decrease in number of human glioblastoma cells [2, 14] [%] | decrease in number of human glioblastoma cells ([2]; 1 μM, at 24 hours) [%] | decrease in number of human glioblastoma cells ([2]; 10 μM, at 24 hours) [%] | number of glioblastoma cancer cells remaining (per field) ([2]; 100 μM) [cells] | also measured |
| --- | --- | --- | --- | --- | --- | --- | --- | --- | --- | --- | --- | --- | --- | --- | --- | --- |
| CC[C@H](C)[C@@H]1NC(=O)[C@H](CCCNC(=N)N)NC(=O)[C@H](CC(=O)O)NC(=O)[C@H](CCSC)NC(=O)[C@H](CCCNC(=N)N)NC(=O)CNC(=O)CNC(=O)[C@H](Cc2ccccc2)NC(=O)[C@@H](NC(=O)[C@H](CO)NC(=O)[C@H](CO)NC(=O)[C@H](CCCNC(=N)N)NC(=O)[C@H](CCCNC(=N)N)NC(=O)[C@H](CC(C)C)NC(=O)[C@@H](N)CO)CSSC[C@@H](C(=O)N[C@@H](CC(N)=O)C(=O)N[C@@H](CO)C(=O)N[C@@H](Cc2ccccc2)C(=O)N[C@@H](CCCNC(=N)N)C(=O)N[C@@H](Cc2ccc(O)cc2)C(=O)O)NC(=O)CNC(=O)[C@H](CC(C)C)NC(=O)CNC(=O)[C@H](CO)NC(=O)[C@H](CCC(N)=O)NC(=O)[C@H](C)NC(=O)CNC1=O [ANP, atrial natriuretic peptide] | 79 | 24 | 43 | 60 | observed | – | – | – | – | – | – | – | – | – | – | – |
| Dendroaspis natriuretic peptide [DNP] | 23 | 1 | 5 | 8 | – | 1 | 1 | 7 | 6 | 17 | 19 | 19 | – | – | – | concentration where first began to have an effect on glioblastoma cells [2]: 100 µM; difference in concentration with significant anticancer effects, DNP versus human cardiac hormones ([2]; DNP higher, human cardiac hormones lower): 100 fold; killing / elimination of human glioblastoma cells, up to ([2]; within 24 hours, maximum effect, concentration not given): up to 19% |
| brain natriuretic peptide [BNP, reference compound] | 23 | – | – | – | – | – | – | – | – | – | – | – | – | – | – | – |
| kaliuretic peptide | 77 | 25 | 40 | 64 | never | 32 | 32 | 51 | 52 | 68 | 68 | 68 | 33 | 51 | 43±2 | decrease in human pancreatic adenocarcinoma cells [4]: 37%; decrease in number of human glioblastoma cells ([2]; 1 μM, at 24 hours, listed as Kaliuretic peptide): 32%; decrease in small-cell lung cancer cells [5]: 30%; decrease in prostate adenocarcinoma cells ([6]; 1 μM): 30% |
| long acting natriuretic peptide (NPMYNAVSNADLMDFKNLLDHLEEKMPLED; Long-acting natriuretic peptide; UniProt P01160 26-55, looked up, fragment) [LANP, cardiac hormone, first 30 amino acids of the 126 a.a. atrial natriuretic peptide prohormone] | 65 | 24 | 39 | 61 | never | 31 | 31 | 50 | 50 | 65 | 65 | 66 | 31 | 49 | 43±2 | – |
| vessel dilator | 87 | 43 | 55 | 68 | never | 53 | 53 | 60 | 60 | 75 | 76 | 76 | 53 | 60 | 33±2 | decrease in number of human colon cancer cells, up to [7]: up to 97%; lower concentration causing the same decrease as the other peptide hormones ([2]; within 24 hours, FIG. 2): 10 fold; decrease in tumor volume [8]: 49%; decrease in number of human prostate cancer cells, up to ([6]; within 24 hours): up to 97% |
